Data published in patent publication US10173982B2, “Picolinamides as fungicides” (Dow AgroSciences LLC, priority 2016, dated 2019).
Like-named read-outs stand apart in the source and are kept apart here.

Key:
Format in all cases: in vivo
Zymoseptoria tritici = assay: Fungicidal activity: leaf blotch of wheat (SEPTTR), percent disease control on wheat seedlings; settings: Zymoseptoria tritici; for pest or weed control at 121.5 g/ha: LV (low volume) activity at 121.5 g/H; for pest or weed control at 100 ppm: HV (high volume) activity at 100 ppm
Protocol: Technical grades of materials were dissolved in acetone, which were then mixed with nine volumes of water containing 110 ppm Triton X-100. The fungicide solutions were applied onto wheat seedlings using an automated booth sprayer to run-off. All sprayed plants were allowed to air dry prior to further handling. All fungicides were evaluated using the aforementioned method for their activity vs. all target diseases, unless stated otherwise. Wheat leaf blotch and brown rust activity were also evaluated using track spray applications, in which case the fungicides were formulated as EC formulations, containing 0.1% Trycol 5941 in the spray solutions. Wheat plants (variety Yuma) were grown from seed in a greenhouse in 50% mineral soil/50% soil-less Metro mix until the first leaf was fully emerged, with 7-10 seedlings per pot. These plants were inoculated with an aqueous spore suspension of Zymoseptoria tritici either prior to or after fungicide treatments. After inoculation the plants were kept in 100% relative humidity (one day in a dark dew chamber followed by two to three days in a lighted dew chamber at 20° C.) to permit spores to germinate and infect the leaf. The plants were then transferred to a greenhouse set at 20° C. for disease to develop. When disease symptoms were fully expressed on the 1st leaves of untreated plants, infection levels were assessed on a scale of 0 to 100 percent disease severity. Percent disease control was calculated using the ratio of disease severity on treated plants relative to untreated plants.

Puccinia triticina = assay: Fungicidal activity: wheat brown rust (PUCCRT), percent disease control on wheat seedlings; settings: Puccinia triticina; for pest or weed control at 121.5 g/ha: LV (low volume) activity at 121.5 g/H; for pest or weed control at 100 ppm: HV (high volume) activity at 100 ppm
Protocol: Technical grades of materials were dissolved in acetone, which were then mixed with nine volumes of water containing 110 ppm Triton X-100. The fungicide solutions were applied onto wheat seedlings using an automated booth sprayer to run-off. All sprayed plants were allowed to air dry prior to further handling. All fungicides were evaluated using the aforementioned method for their activity vs. all target diseases, unless stated otherwise. Wheat leaf blotch and brown rust activity were also evaluated using track spray applications, in which case the fungicides were formulated as EC formulations, containing 0.1% Trycol 5941 in the spray solutions. Wheat plants (variety Yuma) were grown from seed in a greenhouse in 50% mineral soil/50% soil-less Metro mix until the first leaf was fully emerged, with 7-10 seedlings per pot. These plants were inoculated with an aqueous spore suspension of Puccinia triticina either prior to or after fungicide treatments. After inoculation the plants were kept in a dark dew room at 22° C. with 100% relative humidity overnight to permit spores to germinate and infect the leaf. The plants were then transferred to a greenhouse set at 24° C. for disease to develop. Fungicide formulation, application and disease assessment followed the procedures as described in the Example A. Results of the evaluations are shown below in Table 4.

Phakopsora pachyrhizi = assay: Fungicidal activity: Asian soybean rust (PHAKPA), disease control on soybean seedlings; settings: High volume at 25 ppm
Protocol: Technical grades of materials were dissolved in acetone, which were then mixed with nine volumes of water containing 0.011% Tween 20. The fungicide solutions were applied onto soybean seedlings using an automated booth sprayer to run-off. All sprayed plants were allowed to air dry prior to further handling.
Soybean plants (variety Williams 82) were grown in soil-less Metro mix, with one plant per pot. Two weeks old seedlings were used for testing. Plants were inoculated either 3 days prior to or 1 day after fungicide treatments. Plants were incubated for 24 h in a dark dew room at 22° C. and 100% relative humidity then transferred to a growth room at 23° C. for disease to develop. Disease severity was assessed on the sprayed leaves.

[1] = 24 h, 1 Day Protectant, read-out: SEPTTR 1DP disease control rating
[2] = 72 h, 3 Day Curative, read-out: SEPTTR 3DC disease control rating
[3] = 24 h, 1 Day Protectant, read-out: PUCCRT 1DP disease control rating
[4] = 72 h, 3 Day Curative, read-out: PUCCRT 3DC disease control rating
[5] = 24 h, 1 Day Protectant, read-out: PHAKPA 1DP disease control rating
[6] = 72 h, 3 Day Curative, read-out: PHAKPA 3DC disease control rating

SMILES	pest or weed control at 121.5 g/ha (Zymoseptoria tritici; [1]) [%]	pest or weed control at 121.5 g/ha (Zymoseptoria tritici; [2]) [%]	pest or weed control at 121.5 g/ha (Puccinia triticina; [3]) [%]	pest or weed control at 121.5 g/ha (Puccinia triticina; [4]) [%]	pest or weed control at 25 ppm (Phakopsora pachyrhizi; [5]) [%]	pest or weed control at 25 ppm (Phakopsora pachyrhizi; [6]) [%]	pest or weed control at 100 ppm (Zymoseptoria tritici; [1]) [%]	pest or weed control at 100 ppm (Zymoseptoria tritici; [2]) [%]	pest or weed control at 100 ppm (Puccinia triticina; [3]) [%]	pest or weed control at 100 ppm (Puccinia triticina; [4]) [%]
COc1cc(F)ccc1[C@@H](Sc1ccccc1)[C@H](C)OC(=O)[C@H](C)NC(=O)c1nccc(OC)c1OC(C)=O [Compound 84]	> 80	≤ 0	≤ 80	≤ 80	≤ 80	≤ 0	–	–	–	–
COc1ccnc(C(=O)N[C@@H](C)C(=O)O[C@@H](C)[C@@H](c2ccccc2)[S+]([O-])c2ccc(F)cc2)c1OC(C)=O (stereo partly shown) [Compound 62]	≤ 80	≤ 80	≤ 0	≤ 0	≤ 0	≤ 0	–	–	–	–
COc1ccnc(C(=S)N[C@@H](C)C(=O)O[C@@H](C)[C@H](Sc2ccccc2)c2ccc(F)cc2)c1OC(C)=O [Compound 85]	≤ 80	≤ 0	≤ 80	≤ 0	≤ 80	≤ 0	–	–	–	–
COc1ccnc(C(=O)N[C@@H](C)C(=O)O[C@@H](C)[C@H](Sc2ccccc2)c2ccc(F)cc2C)c1OC(C)=O [Compound 78]	> 80	> 80	≤ 80	≤ 0	≤ 80	≤ 0	–	–	–	–
COc1ccnc(C(=O)N[C@@H](C)C(=O)O[C@@H](C)[C@H](Sc2ccccc2)c2ccccc2)c1OCOC(=O)C(C)C [Compound 79]	> 80	> 80	> 80	≤ 80	≤ 80	≤ 80	–	–	–	–
COc1ccnc(C(=O)N[C@@H](C)C(=O)O[C@@H](C)[C@H](Sc2ccc(F)cc2C)c2ccc(F)cc2C)c1OC(C)=O [Compound 76]	> 80	> 80	≤ 80	≤ 0	≤ 80	≤ 80	–	–	–	–
COc1ccnc(C(=O)N[C@@H](C)C(=O)O[C@@H](C)[C@H](Sc2ccc(C(F)(F)F)cn2)c2ccccc2)c1OC(C)=O [Compound 71]	≤ 80	≤ 80	≤ 0	≤ 80	≤ 80	≤ 80	–	–	–	–
COc1ccnc(C(=O)N[C@@H](C)C(=O)O[C@@H](C)[C@H](SC(C)C)c2ccccc2)c1OC(C)=O [Compound 70]	≤ 80	> 80	> 80	≤ 80	> 80	≤ 80	–	–	–	–
COc1ccnc(C(=O)N[C@@H](C)C(=O)O[C@@H](C)[C@H](SCc2ccccc2)c2ccccc2)c1OC(C)=O [Compound 68]	> 80	≤ 80	> 80	> 80	> 80	≤ 80	–	–	–	–
COc1ccnc(C(=O)N[C@@H](C)C(=O)O[C@@H](C)[C@H](Sc2ccccc2)c2ccccc2)c1OCOC(C)=O [Compound 80]	≤ 80	≤ 80	> 80	≤ 80	≤ 80	≤ 80	–	–	–	–
COc1ccnc(C(=O)N[C@@H](C)C(=O)O[C@@H](C)[C@@H](c2ccccc2)S(=O)(=O)c2ccc(F)cc2)c1OC(C)=O [Compound 64]	≤ 80	≤ 80	≤ 80	≤ 0	≤ 0	≤ 80	–	–	–	–
COc1ccnc(C(=O)N[C@@H](C)C(=O)O[C@@H](C)[C@H](Sc2ccc(C)cc2)c2ccccc2)c1OC(C)=O [Compound 66]	> 80	≤ 80	≤ 80	≤ 80	≤ 80	≤ 80	–	–	–	–
COc1ccnc(C(=O)N[C@@H](C)C(=O)O[C@@H](C)[C@H](SCC(C)C)c2ccccc2)c1OC(C)=O [Compound 69]	≤ 80	≤ 0	> 80	≤ 80	> 80	≤ 80	–	–	–	–
COc1ccnc(C(=O)N[C@@H](C)C(=O)O[C@@H](C)[C@H](Sc2ccccc2)c2ccc(C)cc2)c1OC(C)=O [Compound 77]	> 80	≤ 80	> 80	≤ 80	≤ 80	≤ 80	–	–	–	–
COc1ccnc(C(=O)N[C@@H](C)C(=O)O[C@@H](C)[C@H](Sc2ccccc2)c2ccccc2)c1OC(=O)C(C)C [Compound 81]	≤ 80	≤ 80	≤ 80	≤ 80	≤ 80	≤ 80	–	–	–	–
COc1ccnc(C(=O)N[C@@H](C)C(=O)O[C@@H](C)[C@H](Sc2ccc(C)cc2C)c2ccccc2)c1OC(C)=O [Compound 67]	> 80	> 80	> 80	≤ 80	≤ 80	≤ 0	–	–	–	–
COc1ccnc(C(=O)N[C@@H](C)C(=O)O[C@@H](C)[C@H](Sc2ccccc2)c2ccccc2)c1OC(C)=O [Compound 82]	≤ 80	≤ 80	> 80	≤ 80	≤ 80	≤ 80	–	–	–	–
COc1ccnc(C(=O)N[C@@H](C)C(=O)O[C@@H](C)[C@H](Sc2ccccc2)c2ccc(C)cc2)c1O [Compound 53]	–	–	–	–	–	–	> 80	> 80	> 80	> 80
COc1ccnc(C(=O)N[C@@H](C)C(=O)O[C@@H](C)[C@H](Sc2cccc(Cl)c2)c2ccccc2)c1OC(C)=O [Compound 65]	> 80	≤ 0	> 80	≤ 80	≤ 80	≤ 80	–	–	–	–
